Values joined by “and” are separate entries in the source; they are usually repeats but may differ in a detail not shown here. Identical values can stand only once.
System: 556581-035-R-J1-PDC complex spheroid growth
Test: Anticancer human tumor 556581-035-R-J1-PDC patient-derived ovarian carcinoma cell line growth inhibition [Asc]
Details: for viability, T/C: stronger effect = lower value
Procedure, shortened: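 Complex solid-tumor spheroids incorporating human endothelial and mesenchymal stem cells received single agents or combinations over half-log dilution ranges anchored to clinical Cmax.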

[1] = curve of first compound, second compound 0.1 µM
[2] = curve of first compound, second compound 0.316 µM
[3] = curve of first compound, second compound 1 µM
[4] = second compound 0.1 µM, first compound 0.0316 µM
[5] = second compound 0.1 µM, first compound 0.1 µM
[6] = second compound 0.1 µM, first compound 0.316 µM
[7] = second compound 0.1 µM, first compound 1 µM
[8] = second compound 0.316 µM, first compound 0.0316 µM
[9] = second compound 0.316 µM, first compound 0.1 µM
[10] = second compound 0.316 µM, first compound 0.316 µM
[11] = second compound 0.316 µM, first compound 1 µM
[12] = second compound 1 µM, first compound 0.0316 µM
[13] = second compound 1 µM, first compound 0.1 µM
[14] = second compound 1 µM, first compound 0.316 µM
[15] = second compound 1 µM, first compound 1 µM
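Further: spheroids exposed to agents for 7 days before viability read.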

What does the source list for `C=C(F)C(=O)N1CCN(c2nc(OCC3CCCN3C)nc3c2CCN(c2cccc4cccc(Cl)c24)C3)CC1CC#N` (stereo not given) + CNC(C)C(=O)NC1CN(S(=O)(=O)c2cccc(S(=O)(=O)N3CCC4CCC(C(=O)NC(c5ccccc5)c5ccccc5)N4C(=O)C(NC(=O)C(C)NC)C3)c2)CCC2CCC(C(=O)NC(c3ccccc3)c3ccccc3)N2C1=O?
IC50 (curve of first compound, second compound 0.01 µM): 2630 nM; IC50 (curve of first compound, second compound 0.0316 µM): 1880 nM; IC50 [1]: 1500 nM; IC50 [2]: 1070 nM; IC50 [3]: 1090 nM; viability, T/C (second compound 0.01 µM, first compound 0.0316 µM): 85.3%; viability, T/C (second compound 0.01 µM, first compound 0.1 µM): 85%; viability, T/C (second compound 0.01 µM, first compound 0.316 µM): 83%; viability, T/C (second compound 0.01 µM, first compound 1 µM): 86.6%; viability, T/C (second compound 0.01 µM, first compound 3.16 µM): 43.2%; viability, T/C (second compound 0.01 µM, first compound 10 µM): 0.21%; viability, T/C (second compound 0.0316 µM, first compound 0.0316 µM): 83.9%; viability, T/C (second compound 0.0316 µM, first compound 0.1 µM): 86.8%; viability, T/C (second compound 0.0316 µM, first compound 0.316 µM): 86.5%; viability, T/C (second compound 0.0316 µM, first compound 1 µM): 72%; viability, T/C (second compound 0.0316 µM, first compound 3.16 µM): 31.6%; viability, T/C (second compound 0.0316 µM, first compound 10 µM): 0.18%; viability, T/C [4]: 66.5%; viability, T/C [5]: 77.1%; viability, T/C [6]: 79.5%; viability, T/C [7]: 58.4%; viability, T/C (second compound 0.1 µM, first compound 3.16 µM): 29.5%; viability, T/C (second compound 0.1 µM, first compound 10 µM): 0.17%; viability, T/C [8]: 78.7%; viability, T/C [9]: 75.1%; viability, T/C [10]: 63.7%; viability, T/C [11]: 56%; viability, T/C (second compound 0.316 µM, first compound 3.16 µM): 20%; viability, T/C (second compound 0.316 µM, first compound 10 µM): 1.79%; viability, T/C [12]: 66.5%; viability, T/C [13]: 62.7%; viability, T/C [14]: 62.3%; viability, T/C [15]: 52.3%; viability, T/C (second compound 1 µM, first compound 3.16 µM): 24.4%; viability, T/C (second compound 1 µM, first compound 10 µM): 2.63%

For `Cc1nc(N2CCC3(CC2)COC(C)C3N)c(CO)nc1Sc1ccnc(N)c1Cl` (stereo not given), which viability, T/C (compound 0.00949 µM) is on record?
Its viability, T/C is 111% (2×) and 89.8%.

And the viability, T/C (compound 0.03 µM)?
Its viability, T/C is 101% and 92.6% and 91.2%.

And the viability, T/C (compound 0.0949 µM)?
Its viability, T/C is 87.5% and 79.8% and 84%.

And the viability, T/C (compound 0.3 µM)?
The viability, T/C was 81.9% and 68.8% and 83.9%.

What about the viability, T/C (compound 0.949 µM) of the same compound?
The viability, T/C was 62.8% and 61.9% and 56.5%.

And the viability, T/C (compound 3 µM)?
Its viability, T/C is 44.7% and 51% and 51.8%.

What about the IC50 (curve of compound) of the same compound?
The IC50 was 2290 nM and > 3000 nM.

Which results are given for `CNC(C)C(=O)NC1CN(S(=O)(=O)c2cccc(S(=O)(=O)N3CCC4CCC(C(=O)NC(c5ccccc5)c5ccccc5)N4C(=O)C(NC(=O)C(C)NC)C3)c2)CCC2CCC(C(=O)NC(c3ccccc3)c3ccccc3)N2C1=O` (stereo not given) + Cc1c(S(C)(=O)=O)c(-c2cc(F)cc(N3CCN(c4ccc(NS(=O)(=O)c5ccc(NC(CCN6CCC(C(=O)OCCCP(=O)(O)O)CC6)CSc6ccccc6)c(S(=O)(=O)C(F)(F)F)c5)cc4)CC3)c2)c(-c2ccc(Cl)cc2)n1C(C)C?
IC50 [1]: 87.3 nM; IC50 [2]: 73.8 nM; IC50 [3]: 49.9 nM; IC50 (curve of first compound, second compound 3.16 µM): 6.27 nM; IC50 (curve of first compound, second compound 10 µM): < 3.16 nM; viability, T/C (second compound 0.1 µM, first compound 0.00316 µM): 68.6%; viability, T/C (second compound 0.1 µM, first compound 0.01 µM): 69.5%; viability, T/C [4]: 60%; viability, T/C [5]: 48%; viability, T/C [6]: 49.1%; viability, T/C [7]: 41.1%; viability, T/C (second compound 0.316 µM, first compound 0.00316 µM): 60.2%; viability, T/C (second compound 0.316 µM, first compound 0.01 µM): 73.3%; viability, T/C [8]: 68.4%; viability, T/C [9]: 43.7%; viability, T/C [10]: 41%; viability, T/C [11]: 26%; viability, T/C (second compound 1 µM, first compound 0.00316 µM): 61.8%; viability, T/C (second compound 1 µM, first compound 0.01 µM): 53.2%; viability, T/C [12]: 67.3%; viability, T/C [13]: 33.5%; viability, T/C [14]: 28.6%; viability, T/C [15]: 26.8%; viability, T/C (second compound 3.16 µM, first compound 0.00316 µM): 49.7%; viability, T/C (second compound 3.16 µM, first compound 0.01 µM): 54%; viability, T/C (second compound 3.16 µM, first compound 0.0316 µM): 34.7%; viability, T/C (second compound 3.16 µM, first compound 0.1 µM): 35.5%; viability, T/C (second compound 3.16 µM, first compound 0.316 µM): 24.5%; viability, T/C (second compound 3.16 µM, first compound 1 µM): 24.5%; viability, T/C (second compound 10 µM, first compound 0.00316 µM): 49.4%; viability, T/C (second compound 10 µM, first compound 0.01 µM): 35.1%; viability, T/C (second compound 10 µM, first compound 0.0316 µM): 42.4%; viability, T/C (second compound 10 µM, first compound 0.1 µM): 33.6%; viability, T/C (second compound 10 µM, first compound 0.316 µM): 27.8%; viability, T/C (second compound 10 µM, first compound 1 µM): 30.7%

For `CCN1C(C(=O)NC23CCC(C(=O)O)(CC2)CC3)C(c2cccc(Cl)c2F)C2(C(=O)Nc3cc(Cl)ccc32)C12CCCCC2` (stereo not given), which viability, T/C (compound 0.00949 µM) is on record?
Its viability, T/C is 95.4% and 108%.

What about the IC50 (compound alone, run of 10/11/2022) of the same compound?
The IC50 was over 3000 nM.

What about the IC50 (curve of compound) of the same compound?
The IC50 was over 3000 nM.

Which IC50 (curve of first compound, second compound 0.03 µM) does the source give for `O=C(c1ccc(F)c(F)c1Nc1ccc(I)cc1F)N1CC(O)([C@@H]2CCCCN2)C1` + CCN1C(C(=O)NC23CCC(C(=O)O)(CC2)CC3)C(c2cccc(Cl)c2F)C2(C(=O)Nc3cc(Cl)ccc32)C12CCCCC2 here?
Its IC50 is 209 nM.

What about the IC50 (curve of first compound, second compound 0.0949 µM) of the same compound?
The IC50 was 208 nM.

What about the IC50 (curve of first compound, second compound 0.3 µM) of the same compound?
Its IC50 is 181 nM.

And the IC50 (curve of first compound, second compound 0.949 µM)?
Its IC50 is 188 nM.

And the IC50 (curve of first compound, second compound 3 µM)?
Its IC50 is 92.1 nM.

What about the viability, T/C (second compound 0.03 µM, first compound 0.00316 µM) of the same compound?
Its viability, T/C is 118%.

What about the viability, T/C (second compound 0.03 µM, first compound 0.01 µM) of the same compound?
The viability, T/C was 99.4%.

What about the viability, T/C (second compound 0.03 µM, first compound 0.0316 µM) of the same compound?
The viability, T/C was 97.7%.

And the viability, T/C (second compound 0.03 µM, first compound 0.1 µM)?
The viability, T/C was 72.9%.

And the viability, T/C (second compound 0.03 µM, first compound 0.316 µM)?
Its viability, T/C is 35.9%.

What about the viability, T/C (second compound 0.03 µM, first compound 1 µM) of the same compound?
The viability, T/C was 10.6%.

And the viability, T/C (second compound 0.0949 µM, first compound 0.00316 µM)?
Its viability, T/C is 108%.

And the viability, T/C (second compound 0.0949 µM, first compound 0.01 µM)?
Its viability, T/C is 114%.

And the viability, T/C (second compound 0.0949 µM, first compound 0.0316 µM)?
Its viability, T/C is 95.8%.

What about the viability, T/C (second compound 0.0949 µM, first compound 0.1 µM) of the same compound?
The viability, T/C was 85.9%.

And the viability, T/C (second compound 0.0949 µM, first compound 0.316 µM)?
Its viability, T/C is 29.6%.

And the viability, T/C (second compound 0.0949 µM, first compound 1 µM)?
Its viability, T/C is 10.4%.

And the viability, T/C (second compound 0.3 µM, first compound 0.00316 µM)?
Its viability, T/C is 106%.

What about the viability, T/C (second compound 0.3 µM, first compound 0.01 µM) of the same compound?
The viability, T/C was 104%.

And the viability, T/C (second compound 0.3 µM, first compound 0.0316 µM)?
Its viability, T/C is 127%.

And the viability, T/C (second compound 0.3 µM, first compound 0.1 µM)?
The viability, T/C was 73.5%.

What about the viability, T/C (second compound 0.3 µM, first compound 0.316 µM) of the same compound?
The viability, T/C was 29.8%.

And the viability, T/C (second compound 0.3 µM, first compound 1 µM)?
Its viability, T/C is 9.99%.

What about the viability, T/C (second compound 0.949 µM, first compound 0.00316 µM) of the same compound?
The viability, T/C was 99.1%.

What about the viability, T/C (second compound 0.949 µM, first compound 0.01 µM) of the same compound?
Its viability, T/C is 119%.

What about the viability, T/C (second compound 0.949 µM, first compound 0.0316 µM) of the same compound?
The viability, T/C was 100%.

What about the viability, T/C (second compound 0.949 µM, first compound 0.1 µM) of the same compound?
Its viability, T/C is 78.1%.

And the viability, T/C (second compound 0.949 µM, first compound 0.316 µM)?
Its viability, T/C is 26.8%.

And the viability, T/C (second compound 0.949 µM, first compound 1 µM)?
The viability, T/C was 12.4%.

What about the viability, T/C (second compound 3 µM, first compound 0.00316 µM) of the same compound?
The viability, T/C was 99.9%.

And the viability, T/C (second compound 3 µM, first compound 0.01 µM)?
Its viability, T/C is 97.3%.

What about the viability, T/C (second compound 3 µM, first compound 0.0316 µM) of the same compound?
Its viability, T/C is 86.3%.

And the viability, T/C (second compound 3 µM, first compound 0.1 µM)?
Its viability, T/C is 47.3%.

What about the viability, T/C (second compound 3 µM, first compound 0.316 µM) of the same compound?
Its viability, T/C is 17.2%.

And the viability, T/C (second compound 3 µM, first compound 1 µM)?
Its viability, T/C is 11.4%.

Source: PubChem BioAssay AID1963450 (Molecular Pharmacology Branch, DTP, NCI, 2024)
